ChEMBL document CHEMBL5154838, “A pH-Dependent rhodamine fluorophore with antiproliferative activity of bladder cancer in Vitro/Vivo and apoptosis mechanism” (Eur J Med Chem, 2022)
Active and inactive are the calls of the source. No cut-off for these calls is given here.

Tests used:
[1] = Fluorescence response in PBS solution at pH 3 to 9 assessed as higher sensitivity to fluorescence intensity at 2 uM; format: physicochemical; conditions: buffer, pH 3, 2 µM
EJ [2] = experiment: Antitumor activity against human EJ cells xenografted in male nude mouse assessed as reduction in tumor weight at 22.35 uM and measured at pH 7.5; format: functional, cell-based
EJ [3] = experiment: Antiproliferative activity against human EJ cells at pH 7.5 assessed as LDH levels at 22.35 uM after 24 hrs relative to control; format: functional
EJ [4] = experiment: Antitumor activity against human EJ cells xenografted in male nude mouse assessed as decrease in Ki-67 expression at 22.35 uM and measured at pH 5.5 by immunohistochemistry analysis; format: functional, cell-based
EJ [5] = experiment: Antitumor activity against human EJ cells xenografted in male nude mouse assessed as increase in cleaved caspase-9 expression at 22.35 uM and measured by Western blotting analysis; format: functional, cell-based
EJ [6] = experiment: Antitumor activity against human EJ cells xenografted in male nude mouse assessed as reduction in tumor volume at 22.35 uM and measured at pH 6.5; format: functional, cell-based
EJ [7] = experiment: Antitumor activity against human EJ cells xenografted in male nude mouse assessed as reduction in tumor weight at 22.35 uM and measured at pH 5.5; format: functional, cell-based
EJ [8] = experiment: Antiproliferative activity against human EJ cells after 24 hrs by CCK-8 assay; format: functional, cell-based
EJ [9] = experiment: Induction of apoptosis in human EJ cells at 22.35 uM assessed as increase in cleaved caspase-9 expression measured by Western blotting assay; format: functional, cell-based
EJ [10] = experiment: Antitumor activity against human EJ cells xenografted in male nude mouse assessed as decrease in Ki-67 expression at 22.35 uM and measured at pH 8.5 by immunohistochemistry analysis; format: functional, cell-based
EJ [11] = experiment: Antitumor activity against human EJ cells xenografted in male nude mouse assessed as increase in Bax expression at 22.35 uM and measured by Western blotting analysis; format: functional, cell-based
EJ [12] = experiment: Antitumor activity against human EJ cells xenografted in male nude mouse assessed as reduction in tumor weight at 22.35 uM and measured at pH 6.5; format: functional, cell-based
EJ [13] = experiment: Antitumor activity against human EJ cells xenografted in male nude mouse assessed as reduction in tumor volume at 22.35 uM and measured at pH 8.5; format: functional, cell-based
EJ [14] = experiment: Antitumor activity against human EJ cells xenografted in male nude mouse assessed as decrease in Ki-67 expression at 22.35 uM and measured at pH 6.5 by immunohistochemistry analysis; format: functional, cell-based
EJ [15] = experiment: Induction of apoptosis in human EJ cells at 22.35 uM assessed as increase in apoptosis rate measured by Annexin V-PE/7-AAD-based flow cytometry assay; format: functional, cell-based
EJ [16] = experiment: Antiproliferative activity against human EJ cells assessed as inhibition of colony formation at 22.35 uM measured by colony formation assay; format: functional, cell-based
EJ [17] = experiment: Antiproliferative activity against human EJ cells at pH 6.5 assessed as cell viability at 22.35 uM after 24 hrs by CCK-8 assay relative to control; format: functional; conditions: read-out: Activity
EJ [18] = experiment: Antiproliferative activity against human EJ cells at pH 7.5 assessed as cell viability at 22.35 uM after 24 hrs by CCK-8 assay relative to control; format: functional; conditions: read-out: Activity
EJ [19] = experiment: Antitumor activity against human EJ cells xenografted in male nude mouse assessed as increase in cleaved caspase-3 expression at 22.35 uM and measured by Western blotting analysis; format: functional, cell-based
EJ [20] = experiment: Antitumor activity against human EJ cells xenografted in male nude mouse assessed as decrease in Ki-67 expression at 22.35 uM and measured at pH 7.5 by immunohistochemistry analysis; format: functional, cell-based
EJ [21] = experiment: Antitumor activity against human EJ cells xenografted in male nude mouse assessed as decrease in PCNA expression at 22.35 uM and measured at pH 8.5 by immunohistochemistry analysis; format: functional, cell-based
EJ [22] = experiment: Antitumor activity against human EJ cells xenografted in male nude mouse assessed as decrease in PCNA expression at 22.35 uM and measured at pH 5.5 by immunohistochemistry analysis; format: functional, cell-based
EJ [23] = experiment: Antitumor activity against human EJ cells xenografted in male nude mouse assessed as decrease in PCNA expression at 22.35 uM and measured at pH 7.5 by immunohistochemistry analysis; format: functional, cell-based
[24] = Antiproliferative activity against human SV-HUC-1 cells after 24 hrs by CCK-8 assay; format: functional, cell-based; conditions: SV-HUC1, 24 h
EJ [25] = experiment: Induction of apoptosis in human EJ cells at 22.35 uM assessed as increase in cleaved caspase-3 expression measured by Western blotting assay; format: functional, cell-based
EJ [26] = experiment: Antitumor activity against human EJ cells xenografted in male nude mouse assessed as reduction in tumor volume at 22.35 uM and measured at pH 7.5; format: functional, cell-based
EJ [27] = experiment: Antiproliferative activity against human EJ cells at pH 6.5 assessed as LDH levels at 22.35 uM after 24 hrs relative to control; format: functional
EJ [28] = experiment: Antitumor activity against human EJ cells xenografted in male nude mouse assessed as reduction in tumor volume at 22.35 uM and measured at pH 5.5; format: functional, cell-based
EJ [29] = experiment: Induction of apoptosis in human EJ cells at 22.35 uM assessed as increase in Bax expression measured by Western blotting assay; format: functional, cell-based
EJ [30] = experiment: Antitumor activity against human EJ cells xenografted in male nude mouse assessed as decrease in PCNA expression at 22.35 uM and measured at pH 6.5 by immunohistochemistry analysis; format: functional, cell-based
EJ [31] = experiment: Antitumor activity against human EJ cells xenografted in male nude mouse assessed as reduction in tumor weight at 22.35 uM and measured at pH 8.5; format: functional, cell-based
EJ [32] = experiment: Antiproliferative activity against human EJ cells assessed as inhibition of colony formation at 8.34 uM measured by colony formation assay; format: functional, cell-based

For `CCNc1cc2c(cc1C)C1(c3cc(C)c(NCC)cc3O2)c2ccccc2C(=O)N1C1CCC1`, the Activity [1] was “Active”.
For `CCNc1cc2c(cc1C)C1(c3cc(C)c(NCC)cc3O2)c2ccccc2C(=O)N1Cc1ccccn1`, the Activity (EJ [2]) was “Active”, the Activity (EJ [3]) was 26.4% and the Activity (EJ [4]) was “Active”. The Activity (EJ [5]) was “Active”, the Activity (EJ [6]) was “Active” and the Activity (EJ [7]) was “Active”. The IC50 (EJ [8]) was 22.4 µM, the Activity (EJ [9]) was “Active” and the Activity (EJ [10]) was “Active”. For the same compound, the Activity (EJ [11]) was “Active”, the Activity (EJ [12]) was “Active” and the Activity (EJ [13]) was “Active”. The Activity (EJ [14]) was “Active”, the Activity (EJ [15]) was “Active” and the Activity (EJ [16]) was “Active”. For the same compound, the viability at 22.35 µM (EJ [17]) was 68.4%, the viability at 22.35 µM (EJ [18]) was 83.2% and the Activity (EJ [19]) was “Active”. The Activity (EJ [20]) was “Active”, the Activity (EJ [21]) was “Active” and the Activity (EJ [22]) was “Active”. The Activity (EJ [23]) was “Active”, the IC50 [24] was 25.6 µM and the Activity (EJ [25]) was “Active”. The Activity (EJ [26]) was “Active”, the Activity (EJ [27]) was 42.8% and the Activity (EJ [28]) was “Active”. For the same compound, the Activity (EJ [29]) was “Active”, the Activity (EJ [30]) was “Active” and the Activity [1] was “Active”. For the same compound, the Activity (EJ [31]) was “Active”.
For `CCNc1cc2c(cc1C)C1(c3cc(C)c(NCC)cc3O2)c2ccccc2C(=O)N1CC1CCCO1` (configuration not stated), the Activity [1] was “Active”.
In the case of `CCNc1cc2c(cc1C)C1(c3cc(C)c(NCC)cc3O2)c2ccccc2C(=O)N1c1ccn([C@@H]2O[C@H](CO)[C@@H](O)C2(F)F)c(=O)n1`, the IC50 (EJ [8]) is reported as 8.34 µM, the Activity (EJ [32]) is reported as “Active” and the Activity [1] is reported as “Active”.
For `CCNc1cc2c(cc1C)C1(c3cc(C)c(NCC)cc3O2)c2ccccc2C(=O)N1CC1CCOCC1`, the Activity [1] was “Active”.
